According to ChEMBL document CHEMBL4390706, “Chemical constituents from the seeds of Cassia obtusefolia and their in vitro α-glucosidase inhibitory and antioxidant activities” (Bioorg Med Chem Lett, 2019):
Values after ≈ are worked out from the molar mass of the structure shown.

Assay: Inhibition of baker's yeast alpha-glucosidase using PNPG as substrate preincubated for 15 mins followed by substrate addition and measured after 15 mins
Design: species or system Saccharomyces cerevisiae

| IC50 [µg/mL] | SMILES |
| --- | --- |
| 80.01 (≈ 294 µM) | COc1cc(O)c2c(O)c3c(=O)oc(C)cc3cc2c1 |
| 50.6 (≈ 199 µM) | Cc1cc(O)c2c(c1)C(=O)c1cccc(O)c1C2=O [CHRYSOPHANOL] |
| 144.64 (≈ 509 µM) | COc1c(O)c(C)cc2c1C(=O)c1c(O)cccc1C2=O [OBTUSIFOLIN] |
| 117.94 (≈ 415 µM) | COc1cc(O)cc2c1C(=O)c1c(O)cc(C)cc1C2=O [QUESTIN] |
| 183.91 (≈ 585 µM) | COc1ccc2c(c1O)C(=O)c1c(cc(C)c(O)c1OC)C2=O |
| 120.65 (≈ 365 µM) | COc1c(C)cc2c(c1O)C(=O)c1c(cc(O)c(OC)c1O)C2=O |
| 60.09 (≈ 126 µM) | Cc1cc(O)c2c(c1)C(C1c3cccc(O)c3C(=O)c3c(O)cc(C)cc31)c1cccc(O)c1C2=O (stereo not given) |
| 22.57 (≈ 79.4 µM) | COc1cc(O)c2c(c1)C(=O)c1cc(C)cc(O)c1C2=O [PHYSCION] |
| 164.81 (≈ 460 µM) | COc1cc2c(c(O)c1OC)C(=O)c1c(cc(C)c(OC)c1OC)C2=O |
| < 5.05 | C[C@H]1O[C@H](O[C@H]2[C@H](O)[C@@H](O)[C@@H](O[C@H]3[C@H](O)[C@@H](O)C(O)O[C@@H]3CO)O[C@@H]2CO)[C@H](O)[C@@H](O)[C@@H]1N[C@H]1C=C(CO)[C@@H](O)[C@H](O)[C@H]1O (stereo not given in full) [ACARBOSE] |
| 107.81 (≈ 326 µM) | COc1c(O)cc2c(c1O)C(=O)c1c(cc(C)c(O)c1OC)C2=O [AURANTIOOBTUSIN] |

| SMILES | IC50 [µg/mL] |
| --- | --- |
| COc1cc(O)c2c(O)c3c(=O)cc(C)oc3cc2c1 [RUBROFUSARIN] | 162.04 (≈ 595 µM) |

Assay: Antioxidant activity assessed as DPPH radical scavenging activity incubated for 30 mins under dark condition
Assay type: functional

| IC50 [µg/mL] | SMILES |
| --- | --- |
| 78.4 (≈ 288 µM) | COc1cc(O)c2c(O)c3c(=O)oc(C)cc3cc2c1 |
| 6.48 (≈ 36.8 µM) | O=C1O[C@H]([C@@H](O)CO)C(O)=C1O [ASCORBIC ACID] |

| SMILES | IC50 [µg/mL] |
| --- | --- |
| COc1cc(O)c2c(O)c3c(=O)cc(C)oc3cc2c1 [RUBROFUSARIN] | 3.03 (≈ 11.1 µM) |
